Legend:
Mouse GABAa receptor = assay: [3H]-TBOB binding assay, mouse GABAa receptor; conditions: means±S.D., n=3, FIG. 1, read-out: IC50, inhibition of [3H]-TBOB binding
Protocol: (§1) 100 μl membrane was incubated for 70 minutes at room temperature with 4 nM [^3H]-TBOB, different amounts of candidate inhibitor and buffer B. The total assay buffer volume was 500 μl. After incubation, samples were filtered by glass fiber filter papers and washed with 5 ml ice-cold buffer B 3 times. Radioactivity was measured by liquid scintillation counter. Specific binding was calculated as the difference between the total ^3H bound and nonspecific ^3H bound with 100 μM picrotoxin.

House Fly GABA receptor = biological target: T1, House Fly GABA receptor (Musca domestica, UniProt Q75NA5); assay: [3H]-TBOB binding assay, house fly GABA receptor; conditions: for modulation of the house fly GABA receptor: based on [3H]-TBOB-house fly GABA receptor binding assay, FIGS. 1-7; for effect on [3H]-TBOB binding activity: house fly GABA receptor, 4 nM [3H]-TBOB
T1 sequence (Q75NA5 30-576): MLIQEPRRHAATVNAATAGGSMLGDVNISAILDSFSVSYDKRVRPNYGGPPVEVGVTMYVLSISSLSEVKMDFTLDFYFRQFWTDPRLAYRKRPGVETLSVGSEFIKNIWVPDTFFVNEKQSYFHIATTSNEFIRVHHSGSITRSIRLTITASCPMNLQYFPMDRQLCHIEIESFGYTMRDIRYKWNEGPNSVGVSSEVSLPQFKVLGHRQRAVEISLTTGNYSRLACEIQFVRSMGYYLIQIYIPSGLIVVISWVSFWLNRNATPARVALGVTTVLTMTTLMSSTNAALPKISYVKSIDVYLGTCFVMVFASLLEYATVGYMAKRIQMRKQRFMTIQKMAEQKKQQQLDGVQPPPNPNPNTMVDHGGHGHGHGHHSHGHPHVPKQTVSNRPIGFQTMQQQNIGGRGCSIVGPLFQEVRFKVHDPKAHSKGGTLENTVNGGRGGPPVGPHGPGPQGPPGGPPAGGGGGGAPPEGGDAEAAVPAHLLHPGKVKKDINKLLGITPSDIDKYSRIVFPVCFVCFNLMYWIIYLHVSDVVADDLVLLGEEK
Protocol: [^3H]-TBOB Assay. In this study, five monoterpenoids (Pulegone, Thymol, Alpha-terpineol, Linalool and Carvacrol) were investigated to determine their modulation effects on [^3H]TBOB (t-butylbicycloorthobenzoate) binding to housefly GABA (Gamma-aminobutyric acid) receptors.
House fly heads (200) were homogenized in 10 mM tris-HCL buffer (pH 7.5) containing 0.25M sucrose (buffer A) with a glass homogenizer. The homogenate was centrifuged at 1,000×g for 5 minutes. The supernatant was filtered by four layers cheesecloth and centrifuged at 25,000×g for 30 minutes. The supernatant was discarded, and the pellet was homogenized and resuspended in buffer A for 30 minutes. The suspension was centrifuged at 25,000×g for 30 minutes. The final pellet was suspended in 10 mM phosphate buffer (pH 7.5) containing 300 mM NaCL (buffer B) and used directly for the assays.
as §1

[1] = test system: insect GABA receptor (American cockroach CNS membrane microsacs); assay: GABA-activated 36Cl- uptake assay in membrane microsacs; type: biochemical, Periplaneta americana; conditions: for modulation of Cl- uptake: American cockroach membrane microsacs, 1 μM GABA, FIGS. 8-15; for type of modulation of the insect GABA receptor: conclusion from 36Cl- uptake results
Protocol: Cockroach CNS Membrane Microsacs Preparation: Thoracic and abdominal ganglia were removed from 30 American cockroaches and homogenized in 8.0 ml ice-cold buffer of the following composition (in millimoles per liter): NaBr, 145; KBr, 5.0; MgSO4, 1.0; Ca(NO3)2, 1.0; D-glucose, 10.0; N-2-hydroxyethylpiperazine-N′-2-ethanesulphonic acid (HEPES), 10.0 (adjusted to pH 7.5). The homogenate was centrifuged in 1.0 ml aliquots at 10,000×g for 20 min, and the pellets were re-suspended in buffer, re-centrifuged and finally re-suspended in buffer for assaying GABA-activated ^36Cl— uptake.
Cockroach GABA-activated ^36Cl— Uptake: Aliquots (200 μl) of this microsac preparation were incubated at 30° C. for 3 min after which 150 μl of a solution of ^36Cl— (0.2 μCi ml-l; specific activity 580 μCi mmol^−1) containing 1 μM GABA was added. Candidate monoterpenoids were incubated with the tissue sample for 3 min before addition of the solution containing ^36Cl— and GABA. To stop the influx of 36CL—, 2.0 m1 of ice cold buffer was added (after 10 s) and the solution was rapidly filtered over a glass-fiber filter (Whatman GF/C) followed by a 10-ml wash with ice-cold buffer. Filters, which then contained the microsacs, are placed into scintillation vials, and the scintillation cocktail was added. The vials were counted in the liquid scintillation counter, and the amount of ^36Cl— taken up into the microsacs was measured and calculated on the molar basis.

Structure (SMILES) | IC50 (Mouse GABAa receptor) [µM] | modulation of the house fly GABA receptor (House Fly GABA receptor) | effect on [3H]-TBOB binding activity (House Fly GABA receptor) | modulation of Cl- uptake [1] | type of modulation of the insect GABA receptor [1]
ClC1=C(Cl)[C@]2(Cl)[C@@H]3[C@@H]4C[C@@H]([C@H]5O[C@@H]45)[C@@H]3[C@@]1(Cl)C2(Cl)Cl [Dieldrin] | 3.78 ± 0.45 | – | – | – | –
CC(C)=C1CC[C@@H](C)CC1=O [Pulegone] | – | modulated the house fly GABA receptor | potentiated the binding | modulate Cl— uptake | –
CC1=CCC(C(C)(C)O)CC1 (stereo not drawn) [alpha-terpineol] | – | modulated the house fly GABA receptor | lesser effects | – | –
Cc1ccc(C(C)C)cc1O [carvacrol] | – | modulated the house fly GABA receptor | potentiated the binding | modulate Cl— uptake | positive modulators
C=CC(C)(O)CCC=C(C)C (stereo not shown) [linalool] | – | modulated the house fly GABA receptor | potentiated the binding | – | –
Cc1ccc(C(C)C)c(O)c1 [thymol] | – | modulated the house fly GABA receptor | potentiated the binding | modulate Cl— uptake | positive modulators

Reference: US20100144888A1, “PESTICIDAL METHODS AND COMPOSITIONS FOR MODULATING GABA RECEPTORS” (ECOSMART TECHNOLOGIES, INC., priority 2008, published 2010)
